Assay results reported in ChEMBL document CHEMBL3046696, “QSAR analysis of caffeoyl naphthalene sulfonamide derivatives as HIV-1 integrase inhibitors” (Med Chem Res, 2006).

assay: physchem; conditions: octanol/water
Description: Octanol-water partition coefficient, log P of the compound

logP	SMILES
4.18	CC(=O)Oc1ccc(/C=C/C(=O)Nc2cccc3c(S(=O)(=O)Nc4ccccc4C)cccc23)cc1OC(C)=O
3.71	O=C(/C=C/c1ccc(O)c(O)c1)Nc1cccc2c(S(=O)(=O)Nc3ccc(Cl)cc3)cccc12
4.14	O=C(/C=C/c1ccc(O)c(O)c1)Nc1cccc2c(S(=O)(=O)Nc3ccc(Br)cc3)cccc12
4.13	Cc1ccc(NS(=O)(=O)c2cccc3c(NC(=O)/C=C/c4ccc(O)c(O)c4)cccc23)cc1
4.57	O=C(/C=C/c1ccc(O)c(O)c1)Nc1cccc2c(S(=O)(=O)Nc3cccc([N+](=O)[O-])c3)cccc12
4.6	Cc1ccccc1NS(=O)(=O)c1cccc2c(NC(=O)/C=C/c3ccc(O)c(O)c3)cccc12
5.03	Cc1cccc(NS(=O)(=O)c2cccc3c(NC(=O)/C=C/c4ccc(O)c(O)c4)cccc23)c1C
4.86	CC(=O)Oc1ccc(/C=C/C(=O)Nc2cccc3c(S(=O)(=O)Nc4cccc(C(C)C)c4)cccc23)cc1OC(C)=O
4.86	CC(=O)Oc1ccc(/C=C/C(=O)Nc2cccc3c(S(=O)(=O)Nc4ccc(C(C)C)cc4)cccc23)cc1OC(C)=O
5.32	CCCCc1cc(NC(=O)/C=C/c2ccc(OC(C)=O)c(OC(C)=O)c2)c2cccc(S(=O)(=O)Nc3ccccc3)c2c1
5.12	CCCCN(c1ccc(F)cc1)S(=O)(=O)c1cccc2c(NC(=O)/C=C/c3ccc(OC(C)=O)c(OC(C)=O)c3)cccc12
4.55	CC(=O)Oc1ccc(/C=C/C(=O)Nc2cccc3c(S(=O)(=O)Nc4ccc(C(F)(F)F)cc4)cccc23)cc1OC(C)=O
4.55	CC(=O)Oc1ccc(/C=C/C(=O)Nc2cccc3c(S(=O)(=O)Nc4ccccc4C(F)(F)F)cccc23)cc1OC(C)=O
5.66	CC(=O)Oc1ccc(/C=C/C(=O)N(c2cccc3c(S(=O)(=O)Nc4ccccc4)cccc23)C(F)(F)F)cc1OC(C)=O
7.34	CCc1ccc(N(C(=O)/C=C/c2ccc(OC(C)=O)c(OC(C)=O)c2)c2cc(C(F)(F)F)cc3c(S(=O)(=O)Nc4ccc(S(=O)(=O)CC)cc4)cccc23)cc1
6.54	CC(=O)Oc1ccc(/C=C/C(=O)N(c2cccc3c(S(=O)(=O)Nc4cccc(C(F)(F)F)c4)cccc23)C(F)(F)F)cc1OC(C)=O
6.54	CC(=O)Oc1ccc(/C=C/C(=O)N(c2cccc3c(S(=O)(=O)Nc4ccc(C(F)(F)F)cc4)cccc23)C(F)(F)F)cc1OC(C)=O
5.5	CC(=O)Oc1ccc(/C=C/C(=O)Nc2cccc3c(S(=O)(=O)Nc4ccc(SC(F)(F)F)cc4)cccc23)cc1OC(C)=O
4.55	CC(=O)Oc1ccc(/C=C/C(=O)Nc2cccc3c(S(=O)(=O)Nc4ccc(S(=O)(=O)C(F)(F)F)cc4)cccc23)cc1OC(C)=O
7.16	CC(=O)Oc1ccc(/C=C/C(=O)N(SC(F)(F)F)c2cccc3c(S(=O)(=O)Nc4ccc(S(=O)(=O)C(F)(F)F)cc4)cccc23)cc1OC(C)=O
7.16	CC(=O)Oc1ccc(/C=C/C(=O)N(c2cccc3c(S(=O)(=O)Nc4ccc(SC(F)(F)F)cc4)cccc23)S(=O)(=O)C(F)(F)F)cc1OC(C)=O
4.81	CCS(=O)(=O)c1ccc(NS(=O)(=O)c2cccc3c(N(C(=O)/C=C/c4ccc(OC(C)=O)c(OC(C)=O)c4)S(=O)(=O)C(F)(F)F)cccc23)cc1
3.15	CCS(=O)(=O)c1ccc(NS(=O)(=O)c2cccc3c(NC(=O)/C=C/c4ccc(OC(C)=O)c(OC(C)=O)c4)cccc23)cc1
3.15	CCS(=O)(=O)c1cc(NC(=O)/C=C/c2ccc(OC(C)=O)c(OC(C)=O)c2)c2cccc(S(=O)(=O)Nc3ccccc3)c2c1

logP	SMILES
3.92	CCS(=O)(=O)N(C(=O)/C=C/c1ccc(OC(C)=O)c(OC(C)=O)c1)c1cccc2c(S(=O)(=O)Nc3ccccc3)cccc12
6.03	CC(=O)Oc1ccc(/C=C/C(=O)N(c2cccc3c(S(=O)(=O)Nc4ccc(S(=O)(=O)C(F)(F)F)cc4)cccc23)C(F)(F)F)cc1OC(C)=O
3.66	CC(=O)Oc1ccc(/C=C/C(=O)Nc2cccc3c(S(=O)(=O)Nc4ccccc4)cccc23)cc1OC(C)=O
4.1	CC(=O)Oc1ccc(/C=C/C(=O)Nc2cccc3c(S(=O)(=O)NCc4ccccc4)cccc23)cc1OC(C)=O
3.76	CC(=O)Oc1ccc(/C=C/C(=O)Nc2cccc3c(S(=O)(=O)NCCc4ccccc4)cccc23)cc1OC(C)=O
4.19	CC(=O)Oc1ccc(/C=C/C(=O)Nc2cccc3c(S(=O)(=O)Nc4ccc(F)cc4)cccc23)cc1OC(C)=O
4.01	CC(=O)Oc1ccc(/C=C/C(=O)Nc2cccc3c(S(=O)(=O)Nc4ccc(Cl)cc4)cccc23)cc1OC(C)=O
4.44	CC(=O)Oc1ccc(/C=C/C(=O)Nc2cccc3c(S(=O)(=O)Nc4ccc(Br)cc4)cccc23)cc1OC(C)=O
3.8	CC(=O)Oc1ccc(/C=C/C(=O)Nc2cccc3c(S(=O)(=O)Nc4ccc(C)cc4)cccc23)cc1OC(C)=O
4.24	CC(=O)Oc1ccc(/C=C/C(=O)Nc2cccc3c(S(=O)(=O)Nc4cccc([N+](=O)[O-])c4)cccc23)cc1OC(C)=O
4.62	CC(=O)Oc1ccc(/C=C/C(=O)Nc2cccc3c(S(=O)(=O)Nc4cccc(C)c4C)cccc23)cc1OC(C)=O
4.46	O=C(/C=C/c1ccc(O)c(O)c1)Nc1cccc2c(S(=O)(=O)Nc3ccccc3)cccc12
4.89	O=C(/C=C/c1ccc(O)c(O)c1)Nc1cccc2c(S(=O)(=O)NCc3ccccc3)cccc12
4.13	O=C(/C=C/c1ccc(O)c(O)c1)Nc1cccc2c(S(=O)(=O)NCCc3ccccc3)cccc12
4.57	O=C(/C=C/c1ccc(O)c(O)c1)Nc1cccc2c(S(=O)(=O)Nc3ccc(F)cc3)cccc12
5.59	CC(=O)Oc1ccc(/C=C/C(=O)N(c2ccccc2)c2cccc3c(S(=O)(=O)Nc4ccccc4)cccc23)cc1OC(C)=O
6.65	CCN(c1ccccc1)S(=O)(=O)c1cccc2c(N(C(=O)/C=C/c3ccc(OC(C)=O)c(OC(C)=O)c3)c3ccccc3)cc(C)cc12
6.18	CCN(c1ccccc1)S(=O)(=O)c1cccc2c(N(C(=O)/C=C/c3ccc(OC(C)=O)c(OC(C)=O)c3)c3ccccc3)cccc12
4.53	CCc1ccccc1NS(=O)(=O)c1cccc2c(NC(=O)/C=C/c3ccc(OC(C)=O)c(OC(C)=O)c3)cccc12
4.53	CCc1cccc(NS(=O)(=O)c2cccc3c(NC(=O)/C=C/c4ccc(OC(C)=O)c(OC(C)=O)c4)cccc23)c1
4.53	CCc1ccc(NS(=O)(=O)c2cccc3c(NC(=O)/C=C/c4ccc(OC(C)=O)c(OC(C)=O)c4)cccc23)cc1
4.92	CCCc1ccccc1NS(=O)(=O)c1cccc2c(NC(=O)/C=C/c3ccc(OC(C)=O)c(OC(C)=O)c3)cccc12
4.92	CCCc1cccc(NS(=O)(=O)c2cccc3c(NC(=O)/C=C/c4ccc(OC(C)=O)c(OC(C)=O)c4)cccc23)c1
4.86	CC(=O)Oc1ccc(/C=C/C(=O)Nc2cccc3c(S(=O)(=O)Nc4ccccc4C(C)C)cccc23)cc1OC(C)=O
